In patent US20240041877A1, “DOSAGE REGIME AND METHOD FOR TREATING PULMONARY ARTERIAL HYPERTENSION” (Altavant Sciences GmbH, priority 2019, published 2024):

Legend:
clinical = settings: human
[1] = Study KAR5585-101 Part 1 (SAD): plasma pharmacokinetics after a single oral dose of KAR5585, fasting and fed (incl. dose proportionality and food effect); settings: for AUC: AUC0-tau; for AUC(0-inf): AUC0-∞; for Vd/F: Vz/F
[2] = 100 mg KAR5585 single oral, fasted, Cohort 1, Geo. Mean
[3] = 100 mg KAR5585 single oral, fasted, Cohort 1, Mean
[4] = 200 mg KAR5585 single oral, fasted, Cohort 2, Geo. Mean
[5] = 200 mg KAR5585 single oral, fasted, Cohort 2, Mean
[6] = 400 mg KAR5585 single oral, fasted, Cohort 3A, Geo. Mean
[7] = 400 mg KAR5585 single oral, fasted, Cohort 3A, Mean
[8] = 400 mg KAR5585 single oral, fed, Cohort 3B, Geo. Mean
[9] = 400 mg KAR5585 single oral, fed, Cohort 3B, Mean
[10] = 700 mg KAR5585 single oral, fasted, Cohort 4, Geo. Mean
[11] = 700 mg KAR5585 single oral, fasted, Cohort 4, Mean
[12] = 1200 mg KAR5585 single oral, fasted, Cohort 5, Geo. Mean
[13] = 1200 mg KAR5585 single oral, fasted, Cohort 5, Mean
[14] = 2000 mg KAR5585 single oral, fasted, Cohort 6, Geo. Mean
[15] = 2000 mg KAR5585 single oral, fasted, Cohort 6, Mean
[16] = 100 to 2000 mg KAR5585 single oral dose, fasting, plasma analyte = label
[17] = human, plasma, po, 100 mg, 100 mg KAR5585 single oral, fasted, Cohort 1, Geo. Mean
[18] = human, plasma, po, 100 mg, 100 mg KAR5585 single oral, fasted, Cohort 1, Mean
[19] = human, plasma, po, 200 mg, 200 mg KAR5585 single oral, fasted, Cohort 2, Geo. Mean
[20] = human, plasma, po, 200 mg, 200 mg KAR5585 single oral, fasted, Cohort 2, Mean

For `CCOC(=O)[C@@H]1CC2(CCN(c3cc(O[C@H](c4ccc(Cl)cc4-c4ccccc4)C(F)(F)F)nc(N)n3)CC2)CN1` [KAR5585, (S)-ethyl 8-(2-amino-6-((R)-1-(5-chloro-[1,1′-biphenyl]-2-yl)-2,2,2-trifluoroethoxy)pyrimidin-4-yl)-2,8-diazaspiro[4.5]decane-3-carboxylate], which half-life (clinical; in vivo, 400 mg) is on record?
Its half-life is 3.14 h.

And the Cmax (clinical; in vivo, 400 mg/dose)?
Its Cmax is 110 ng/mL.

And the Cmax at 1 day (clinical; plasma, oral, 100 mg)?
The Cmax at 1 day was 16.7 ng/mL.

What about the Cmax at 14 day (clinical; plasma, oral, 100 mg) of the same molecule?
The Cmax at 14 day was 21.3 ng/mL.

And the AUC(0-inf) (clinical; plasma, oral, 100 mg/dose)?
Its AUC(0-inf) is 54.1 ng·h/mL.

And the AUC(0-t) (clinical; plasma, oral, 100 mg/dose)?
The AUC(0-t) was 50.8 ng·h/mL.

And the Cmax (clinical; plasma, oral, 100 mg/dose)?
Its Cmax is 15.8 ng/mL.

What about the Tmax (clinical; plasma, oral, 100 mg/dose) of the same molecule?
Its Tmax is 1 h.

What about the Vd/F (clinical; plasma, oral, 100 mg/dose) of the same molecule?
The Vd/F was 4620 L.

What about the half-life (clinical; plasma, oral, 100 mg/dose) of the same molecule?
Its half-life is 1.73 h.

And the AUC(0-inf) (clinical; plasma, oral, 400 mg)?
Its AUC(0-inf) is 305 ng·h/mL.

And the Tmax (clinical; plasma, oral, 400 mg)?
The Tmax was 2 h.

And the AUC(0-inf) (clinical; plasma, oral, 400 mg/dose)?
The AUC(0-inf) was 482 ng·h/mL.

What about the Cmax (clinical; plasma, oral, 400 mg/dose) of the same molecule?
Its Cmax is 89 ng/mL.

And the concentration at 12 h (clinical; plasma, oral, 400 mg/dose)?
Its concentration at 12 h is 11.4 ng/mL.

What about the half-life (clinical; plasma, oral, 400 mg/dose) of the same molecule?
The half-life was 6.45 h.

And the AUC0-24/D [1, 2]?
The AUC0-24/D was 0.475 (hr*ng/ml)/mg.

What about the C12 [1, 2] of the same molecule?
Its C12 is “BLQ”.

And the CL/F [1, 2]?
The CL/F was 2110 L/h.

What about the Cmax/D [1, 2] of the same molecule?
Its Cmax/D is 0.132 (ng/mL)/mg.

What about the AUC0-24/D [1, 3] of the same molecule?
Its AUC0-24/D is 0.496 (hr*ng/ml)/mg.

And the C12 [1, 3]?
Its C12 is “BLQ”.

And the CL/F [1, 3]?
Its CL/F is 2210 L/h.

And the Cmax/D [1, 3]?
Its Cmax/D is 0.139 (ng/mL)/mg.

And the AUC0-24/D [1, 4]?
Its AUC0-24/D is 0.467 (hr*ng/ml)/mg.

What about the C12 [1, 4] of the same molecule?
Its C12 is “BLQ”.

What about the CL/F [1, 4] of the same molecule?
Its CL/F is 2100 L/h.

And the Cmax/D [1, 4]?
Its Cmax/D is 0.0875 (ng/mL)/mg.

And the AUC0-24/D [1, 5]?
Its AUC0-24/D is 0.485 (hr*ng/ml)/mg.

And the C12 [1, 5]?
Its C12 is “BLQ”.

What about the CL/F [1, 5] of the same molecule?
The CL/F was 2220 L/h.

What about the Cmax/D [1, 5] of the same molecule?
The Cmax/D was 0.0961 (ng/mL)/mg.

And the AUC0-24/D [1, 6]?
Its AUC0-24/D is 0.707 (hr*ng/ml)/mg.

And the CL/F [1, 6]?
The CL/F was 1390 L/h.

And the Cmax/D [1, 6]?
The Cmax/D was 0.105 (ng/mL)/mg.

And the AUC0-24/D [1, 7]?
Its AUC0-24/D is 0.742 (hr*ng/ml)/mg.

What about the CL/F [1, 7] of the same molecule?
Its CL/F is 1480 L/h.

What about the Cmax/D [1, 7] of the same molecule?
The Cmax/D was 0.132 (ng/mL)/mg.

What about the AUC0-24/D [1, 8] of the same molecule?
The AUC0-24/D was 2.19 (hr*ng/ml)/mg.

What about the CL/F [1, 8] of the same molecule?
Its CL/F is 443 L/h.

What about the Cmax/D [1, 8] of the same molecule?
The Cmax/D was 0.413 (ng/mL)/mg.

And the AUC0-24/D [1, 9]?
The AUC0-24/D was 2.21 (hr*ng/ml)/mg.

And the CL/F [1, 9]?
The CL/F was 449 L/h.

And the Cmax/D [1, 9]?
The Cmax/D was 0.422 (ng/mL)/mg.

What about the AUC0-24/D [1, 10] of the same molecule?
The AUC0-24/D was 0.584 (hr*ng/ml)/mg.

What about the CL/F [1, 10] of the same molecule?
Its CL/F is 1700 L/h.

What about the Cmax/D [1, 10] of the same molecule?
The Cmax/D was 0.136 (ng/mL)/mg.

And the AUC0-24/D [1, 11]?
The AUC0-24/D was 0.617 (hr*ng/ml)/mg.

What about the CL/F [1, 11] of the same molecule?
Its CL/F is 1810 L/h.

What about the Cmax/D [1, 11] of the same molecule?
The Cmax/D was 0.142 (ng/mL)/mg.

And the AUC0-24/D [1, 12]?
The AUC0-24/D was 0.333 (hr*ng/ml)/mg.

What about the CL/F [1, 12] of the same molecule?
The CL/F was 2960 L/h.

And the Cmax/D [1, 12]?
The Cmax/D was 0.0568 (ng/mL)/mg.

And the AUC0-24/D [1, 13]?
The AUC0-24/D was 0.378 (hr*ng/ml)/mg.

And the CL/F [1, 13]?
The CL/F was 3850 L/h.

What about the Cmax/D [1, 13] of the same molecule?
Its Cmax/D is 0.0692 (ng/mL)/mg.

What about the AUC0-24/D [1, 14] of the same molecule?
The AUC0-24/D was 0.348 (hr*ng/ml)/mg.

What about the CL/F [1, 14] of the same molecule?
The CL/F was 3000 L/h.

What about the Cmax/D [1, 14] of the same molecule?
Its Cmax/D is 0.0475 (ng/mL)/mg.

What about the AUC0-24/D [1, 15] of the same molecule?
Its AUC0-24/D is 0.403 (hr*ng/ml)/mg.

What about the CL/F [1, 15] of the same molecule?
The CL/F was 3820 L/h.

What about the Cmax/D [1, 15] of the same molecule?
Its Cmax/D is 0.0522 (ng/mL)/mg.

And the “Dose proportionality power model, AUC0-12: Intercept estimate” value [1, 16]?
The value was 1.51.

What about the “Dose proportionality power model, AUC0-inf: Intercept estimate” value [1, 16] of the same molecule?
Its value is 1.46.

And the “Dose proportionality power model, AUC0-tau: Intercept estimate” value [1, 16]?
Its value is 0.258.

What about the “Dose proportionality power model, Cmax: Intercept estimate” value [1, 16] of the same molecule?
The value was 0.534.

What about the half-life ([1]; human, in vivo, po, 200 mg) of the same molecule?
Its half-life is 3.17 h.

What about the AUC [1, 17] of the same molecule?
Its AUC is 27.4 ng·h/mL.

And the AUC [1, 18]?
Its AUC is 35 ng·h/mL.

What about the AUC(0-inf) [1, 17] of the same molecule?
The AUC(0-inf) was 47.5 ng·h/mL.

What about the AUC(0-inf) [1, 18] of the same molecule?
Its AUC(0-inf) is 49.5 ng·h/mL.

And the Cmax [1, 17]?
Its Cmax is 13.2 ng/mL.

What about the Cmax [1, 18] of the same molecule?
The Cmax was 13.9 ng/mL.

And the Vd/F [1, 17]?
The Vd/F was 5190 L.

And the Vd/F [1, 18]?
Its Vd/F is 5680 L.

What about the half-life ([1]; human, plasma, po, 100 mg, t1 (t½, apparent terminal half-life), 100 mg KAR5585 single oral, fasted, Cohort 1, Geo. Mean) of the same molecule?
The half-life was 1.71 h.

And the half-life ([1]; human, plasma, po, 100 mg, t1 (t½, apparent terminal half-life), 100 mg KAR5585 single oral, fasted, Cohort 1, Mean)?
Its half-life is 1.89 h.

What about the Tmax ([1]; human, plasma, po, 100 mg, tmax, 100 mg KAR5585 single oral, fasted, Cohort 1, Median) of the same molecule?
Its Tmax is 1.5 h.

What about the AUC [1, 19] of the same molecule?
Its AUC is 52 ng·h/mL.

What about the AUC [1, 20] of the same molecule?
Its AUC is 61.4 ng·h/mL.

What about the AUC(0-inf) [1, 19] of the same molecule?
Its AUC(0-inf) is 95.3 ng·h/mL.

What about the AUC(0-inf) [1, 20] of the same molecule?
The AUC(0-inf) was 99.5 ng·h/mL.

And the Cmax [1, 19]?
The Cmax was 17.5 ng/mL.

What about the Cmax [1, 20] of the same molecule?
The Cmax was 19.2 ng/mL.
